In data set [1] the target is T1, human androgen receptor (hAR) (Homo sapiens, UniProt P10275, DEL79-80/DUP470-473/R9G).
T1 construct: made in house; host or cells: Sf9 insect cells (baculovirus)
T1 sequence (P10275 with tags, fused parts or gaps R9G/DEL79-80/DUP470-473): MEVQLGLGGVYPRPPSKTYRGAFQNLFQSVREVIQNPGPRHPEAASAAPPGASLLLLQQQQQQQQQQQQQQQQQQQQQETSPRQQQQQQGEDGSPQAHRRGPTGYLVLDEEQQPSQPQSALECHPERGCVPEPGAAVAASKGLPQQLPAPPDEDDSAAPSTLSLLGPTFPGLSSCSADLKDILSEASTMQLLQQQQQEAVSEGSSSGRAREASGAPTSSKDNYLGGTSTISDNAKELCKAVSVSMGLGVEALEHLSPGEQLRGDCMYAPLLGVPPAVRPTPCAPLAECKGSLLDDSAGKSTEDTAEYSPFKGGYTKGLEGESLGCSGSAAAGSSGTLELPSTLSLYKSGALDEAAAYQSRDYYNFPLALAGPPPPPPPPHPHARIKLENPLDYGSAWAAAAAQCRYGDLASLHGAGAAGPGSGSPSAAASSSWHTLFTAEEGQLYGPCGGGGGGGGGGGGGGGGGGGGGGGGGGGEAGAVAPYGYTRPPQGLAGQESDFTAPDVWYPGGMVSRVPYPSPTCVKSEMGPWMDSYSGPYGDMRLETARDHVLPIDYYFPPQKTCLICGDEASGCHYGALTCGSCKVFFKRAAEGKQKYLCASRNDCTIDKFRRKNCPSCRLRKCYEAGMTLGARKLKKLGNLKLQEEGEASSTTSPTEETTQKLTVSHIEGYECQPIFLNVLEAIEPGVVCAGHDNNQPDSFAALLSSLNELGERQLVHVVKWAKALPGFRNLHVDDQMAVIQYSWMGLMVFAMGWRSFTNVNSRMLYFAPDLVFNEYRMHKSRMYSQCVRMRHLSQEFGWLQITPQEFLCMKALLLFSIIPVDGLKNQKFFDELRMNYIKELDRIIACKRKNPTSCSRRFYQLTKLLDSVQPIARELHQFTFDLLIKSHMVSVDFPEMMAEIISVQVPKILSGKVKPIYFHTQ
Nature of the data set: Radioligand binding, [3H]mibolerone, hAR expressed in Sf9. The following applies: hAR expressed in Sf9; [3H]mibolerone 0.3 nM; read-out: Mean Ki ± SEM hAR. The method, then: (§1) Full-length human mineralocorticoid receptor (hMR) to be used in radioligand binding was isolated from a human kidney cDNA library (Clontech, Palo Alto, CA). […] The hMR, hPR, and hAR cDNAs were subcloned in the eukaryotic expression vector pcDNA3. Methods for the expression of functionally active hMR, hAR and hPR utilizing the baculovirus expression system were described previously, [31].
(§2) Affinity of ligands to the soluble receptor was determined using vacuum filtration methods, preparing soluble receptors in 96-well Falcon polystyrene plates (BD Biosciences, Bedford, MA) in a total volume of 250 μl. […] Binding studies for ligands for hPR and hAR were determined using [1,2,6,7-3H(N)] […] Specific binding of 3H-progesterone for hPR and 3H-mibolerone for hAR was determined in the presence and absence of 1 μM mifepristone. Inhibition constants (Ki), were determined either from the Cheng-Prusoff equation[32], or directly using non-linear regression curve fitting to a three-parameter one-site competitive equation. […] Protein was measured using colorimetric detection and quantification of bicinchoninic acid (BCA Protein Assay, Pierce, Rockford, IL). […] Concentration response curves were analyzed statistically using a four-parameter logistic equation (Hill equation for sigmoid curves). […]

Data set [2] deals with human androgen receptor (hAR). Described as above. The following applies: selectivity. The method, then: as §1, §2
Data set [3] addresses T2, human progesterone receptor (hPR) (Homo sapiens, UniProt P06401).
T2 sequence (P06401 679-933 limits assumed): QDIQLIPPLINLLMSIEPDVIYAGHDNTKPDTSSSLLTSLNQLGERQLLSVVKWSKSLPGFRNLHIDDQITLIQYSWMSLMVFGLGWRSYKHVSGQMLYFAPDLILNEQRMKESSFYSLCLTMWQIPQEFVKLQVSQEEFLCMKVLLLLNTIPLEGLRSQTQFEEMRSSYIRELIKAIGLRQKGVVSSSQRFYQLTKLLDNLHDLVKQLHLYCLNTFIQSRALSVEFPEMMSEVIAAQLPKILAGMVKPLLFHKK
Nature of the data set: Radioligand binding, [3H]progesterone, hPR expressed in Sf9. The method, then:
as §1, §2

A further data set concerns Nx rats. In words: Preliminary experiments to determine the doses of Eple and Ly. The data set is classed as in vivo. The method, then: Preliminary experiments were performed to exclude the possibility that any differences between Eple and Ly, both in monotherapy and as add-ons to L, were simply due to the use of inadequately low doses of either compound. In the first set of experiments, Nx rats received Eple at the recommended dose of 85 mg/kg, and at 150 mg/kg, higher than in most studies reported so far. […] Other Nx rats received Ly at either 12 mg/kg (the recommended dose) or 20 mg/kg. […] Based on these preliminary results, we set the doses of Eple and Ly at 150 mg/kg and 20 mg/kg, respectively.

A short description of data set [4]: Permeability (data not shown). It is filed as in vitro ADME.
The nature of data set [5]: Pharmacokinetics (data not shown).

The term Ki denotes a dissociation constant, usually derived from enzyme kinetics or from competition with a known ligand. In the case of `O=c1[nH]c2ccc(/C=C3\c4ccc(F)cc4COc4cc(F)ccc43)cc2[nH]1` [Ly], the Ki in data set [1] worked out at 323 ± 101 nM; in data set [3] (hPR expressed in Sf9, [3H]progesterone 0.5 nM, read-out: Mean Ki ± SEM hPR), 92 ± 19 nM. The “Ratio of Ki's hAR: hMR” value in data set [2] is given as 202. For the same molecule, the “Ratio of Ki's hPR: hMR” value in data set [3] (selectivity) came to 58. Besides, the “Maximal nontoxic dose, defined by stunting of body growth” value with Nx rats amounted to 20 mg/kg. Also, the “Dose-response effect on the parameters studied” value with Nx rats (Ly 12 mg/kg vs 20 mg/kg) is “A dose-response effect was observed for most parameters”. Besides, the Body growth entry in the data set with Nx rats (Ly 30 mg/kg) is recorded as “severe growth stunting”. For the same molecule, the Permeability entry in data set [4] is “good permeability”. Besides, the Pharmacokinetics properties entry in data set [5] is “good pharmacokinetics properties”.
